# In ChEMBL document CHEMBL5465560, “Selectivity Literature for EUbOPEN Chemogenomic Library” (2024):
# Tests used:
# Settings in all cases: at 10 µM
# [1] = target: Serine/threonine-protein kinase MRCK gamma (Homo sapiens) (UniProt Q6DT37)
# [2] = target: T1, Serine/threonine-protein kinase 36 (Homo sapiens) (UniProt Q9NRP7)
# T1 sequence (whole entry): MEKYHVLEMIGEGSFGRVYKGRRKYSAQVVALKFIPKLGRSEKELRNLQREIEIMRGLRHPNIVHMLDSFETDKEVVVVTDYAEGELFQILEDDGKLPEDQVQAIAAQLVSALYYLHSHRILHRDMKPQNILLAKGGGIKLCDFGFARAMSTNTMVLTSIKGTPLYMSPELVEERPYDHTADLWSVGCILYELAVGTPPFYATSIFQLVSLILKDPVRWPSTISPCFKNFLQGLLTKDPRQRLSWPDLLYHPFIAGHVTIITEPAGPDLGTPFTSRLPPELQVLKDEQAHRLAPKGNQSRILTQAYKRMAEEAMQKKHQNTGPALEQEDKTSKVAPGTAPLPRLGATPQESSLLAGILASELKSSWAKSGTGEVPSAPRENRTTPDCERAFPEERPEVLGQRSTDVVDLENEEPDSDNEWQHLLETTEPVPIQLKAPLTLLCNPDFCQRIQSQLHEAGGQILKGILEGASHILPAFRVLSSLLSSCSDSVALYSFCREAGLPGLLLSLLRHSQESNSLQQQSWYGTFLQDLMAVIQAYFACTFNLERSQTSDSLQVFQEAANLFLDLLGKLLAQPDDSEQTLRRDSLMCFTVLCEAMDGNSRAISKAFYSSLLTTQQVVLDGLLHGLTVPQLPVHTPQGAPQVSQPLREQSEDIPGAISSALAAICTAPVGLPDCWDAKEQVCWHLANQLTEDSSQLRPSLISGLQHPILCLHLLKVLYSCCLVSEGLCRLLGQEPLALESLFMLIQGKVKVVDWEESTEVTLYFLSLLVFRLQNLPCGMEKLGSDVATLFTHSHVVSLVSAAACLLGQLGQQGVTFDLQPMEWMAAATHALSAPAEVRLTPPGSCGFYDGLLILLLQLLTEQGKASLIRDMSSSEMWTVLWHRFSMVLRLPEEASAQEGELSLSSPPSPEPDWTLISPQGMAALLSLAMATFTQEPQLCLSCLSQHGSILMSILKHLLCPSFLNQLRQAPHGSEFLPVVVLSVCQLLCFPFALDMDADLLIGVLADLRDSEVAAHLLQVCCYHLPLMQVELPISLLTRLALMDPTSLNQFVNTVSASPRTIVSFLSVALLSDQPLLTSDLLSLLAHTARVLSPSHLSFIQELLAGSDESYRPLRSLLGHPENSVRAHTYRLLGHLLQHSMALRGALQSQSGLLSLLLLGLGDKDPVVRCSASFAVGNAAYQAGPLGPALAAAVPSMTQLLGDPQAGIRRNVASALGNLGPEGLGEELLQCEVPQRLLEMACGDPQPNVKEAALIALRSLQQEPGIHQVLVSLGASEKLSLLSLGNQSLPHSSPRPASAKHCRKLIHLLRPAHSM
# [3] = target: T2, Rhodopsin kinase GRK7 (Homo sapiens) (UniProt Q8WTQ7); assay: Selectivity interaction (KinomeScan (DiscoverX)) EUB0000595a GRK7
# T2 sequence (whole entry): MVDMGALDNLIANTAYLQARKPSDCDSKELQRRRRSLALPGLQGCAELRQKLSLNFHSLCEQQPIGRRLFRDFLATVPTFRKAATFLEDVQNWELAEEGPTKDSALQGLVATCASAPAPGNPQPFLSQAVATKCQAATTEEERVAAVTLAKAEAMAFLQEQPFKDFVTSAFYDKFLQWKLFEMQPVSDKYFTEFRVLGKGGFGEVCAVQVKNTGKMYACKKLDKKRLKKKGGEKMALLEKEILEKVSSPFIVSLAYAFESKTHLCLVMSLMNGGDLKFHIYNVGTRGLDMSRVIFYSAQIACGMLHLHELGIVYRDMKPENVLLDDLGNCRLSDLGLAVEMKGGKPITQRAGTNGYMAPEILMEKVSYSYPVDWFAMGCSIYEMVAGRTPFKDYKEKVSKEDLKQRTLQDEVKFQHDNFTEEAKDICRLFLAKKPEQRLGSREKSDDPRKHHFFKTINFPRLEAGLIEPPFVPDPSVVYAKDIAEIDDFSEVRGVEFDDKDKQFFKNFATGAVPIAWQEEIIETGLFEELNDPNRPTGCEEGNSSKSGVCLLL
# [4] = target: Myosin light chain kinase 2, skeletal/cardiac muscle (Homo sapiens) (UniProt Q9H1R3); assay: Selectivity interaction (KinomeScan (DiscoverX)) EUB0000595a MYLK2
# [5] = target: T3, NUAK family SNF1-like kinase 2 (Homo sapiens) (UniProt Q9H093); assay: Selectivity interaction (KinomeScan (DiscoverX)) EUB0000607a NUAK2
# T3 sequence (whole entry): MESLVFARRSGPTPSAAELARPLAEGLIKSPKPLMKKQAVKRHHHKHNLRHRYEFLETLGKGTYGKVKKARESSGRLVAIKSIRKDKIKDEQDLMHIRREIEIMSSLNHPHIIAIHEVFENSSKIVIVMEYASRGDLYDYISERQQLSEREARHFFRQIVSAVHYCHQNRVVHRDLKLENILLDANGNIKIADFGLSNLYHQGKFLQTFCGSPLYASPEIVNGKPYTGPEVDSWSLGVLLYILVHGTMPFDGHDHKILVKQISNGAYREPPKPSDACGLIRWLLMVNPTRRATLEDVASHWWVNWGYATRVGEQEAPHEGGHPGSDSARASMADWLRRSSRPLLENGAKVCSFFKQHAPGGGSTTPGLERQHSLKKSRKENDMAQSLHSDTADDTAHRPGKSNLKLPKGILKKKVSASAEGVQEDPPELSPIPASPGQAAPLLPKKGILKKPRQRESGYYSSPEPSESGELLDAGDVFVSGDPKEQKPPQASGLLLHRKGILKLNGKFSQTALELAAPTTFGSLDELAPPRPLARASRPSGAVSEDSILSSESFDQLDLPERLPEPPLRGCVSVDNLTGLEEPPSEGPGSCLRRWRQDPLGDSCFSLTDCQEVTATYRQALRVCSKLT
# Sequence of Myosin light chain kinase 2, skeletal/cardiac muscle (Homo sapiens) (Q9H1R3 whole entry): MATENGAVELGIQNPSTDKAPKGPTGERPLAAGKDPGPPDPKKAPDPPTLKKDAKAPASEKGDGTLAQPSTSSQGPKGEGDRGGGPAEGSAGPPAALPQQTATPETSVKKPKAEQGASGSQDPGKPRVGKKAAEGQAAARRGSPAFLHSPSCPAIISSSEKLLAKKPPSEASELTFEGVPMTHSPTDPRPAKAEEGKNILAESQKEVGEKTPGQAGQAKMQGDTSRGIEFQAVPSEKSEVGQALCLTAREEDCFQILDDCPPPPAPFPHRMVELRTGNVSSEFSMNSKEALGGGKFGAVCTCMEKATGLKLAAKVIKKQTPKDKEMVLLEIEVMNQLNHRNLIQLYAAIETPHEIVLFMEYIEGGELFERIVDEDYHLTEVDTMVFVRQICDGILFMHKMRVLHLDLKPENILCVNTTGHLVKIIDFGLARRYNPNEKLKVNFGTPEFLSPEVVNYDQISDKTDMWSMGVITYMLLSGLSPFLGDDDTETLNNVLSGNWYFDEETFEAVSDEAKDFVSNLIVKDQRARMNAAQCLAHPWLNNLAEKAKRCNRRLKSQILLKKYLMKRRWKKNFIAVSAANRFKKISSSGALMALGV
# Sequence of Serine/threonine-protein kinase MRCK gamma (Homo sapiens) (Q6DT37 whole entry): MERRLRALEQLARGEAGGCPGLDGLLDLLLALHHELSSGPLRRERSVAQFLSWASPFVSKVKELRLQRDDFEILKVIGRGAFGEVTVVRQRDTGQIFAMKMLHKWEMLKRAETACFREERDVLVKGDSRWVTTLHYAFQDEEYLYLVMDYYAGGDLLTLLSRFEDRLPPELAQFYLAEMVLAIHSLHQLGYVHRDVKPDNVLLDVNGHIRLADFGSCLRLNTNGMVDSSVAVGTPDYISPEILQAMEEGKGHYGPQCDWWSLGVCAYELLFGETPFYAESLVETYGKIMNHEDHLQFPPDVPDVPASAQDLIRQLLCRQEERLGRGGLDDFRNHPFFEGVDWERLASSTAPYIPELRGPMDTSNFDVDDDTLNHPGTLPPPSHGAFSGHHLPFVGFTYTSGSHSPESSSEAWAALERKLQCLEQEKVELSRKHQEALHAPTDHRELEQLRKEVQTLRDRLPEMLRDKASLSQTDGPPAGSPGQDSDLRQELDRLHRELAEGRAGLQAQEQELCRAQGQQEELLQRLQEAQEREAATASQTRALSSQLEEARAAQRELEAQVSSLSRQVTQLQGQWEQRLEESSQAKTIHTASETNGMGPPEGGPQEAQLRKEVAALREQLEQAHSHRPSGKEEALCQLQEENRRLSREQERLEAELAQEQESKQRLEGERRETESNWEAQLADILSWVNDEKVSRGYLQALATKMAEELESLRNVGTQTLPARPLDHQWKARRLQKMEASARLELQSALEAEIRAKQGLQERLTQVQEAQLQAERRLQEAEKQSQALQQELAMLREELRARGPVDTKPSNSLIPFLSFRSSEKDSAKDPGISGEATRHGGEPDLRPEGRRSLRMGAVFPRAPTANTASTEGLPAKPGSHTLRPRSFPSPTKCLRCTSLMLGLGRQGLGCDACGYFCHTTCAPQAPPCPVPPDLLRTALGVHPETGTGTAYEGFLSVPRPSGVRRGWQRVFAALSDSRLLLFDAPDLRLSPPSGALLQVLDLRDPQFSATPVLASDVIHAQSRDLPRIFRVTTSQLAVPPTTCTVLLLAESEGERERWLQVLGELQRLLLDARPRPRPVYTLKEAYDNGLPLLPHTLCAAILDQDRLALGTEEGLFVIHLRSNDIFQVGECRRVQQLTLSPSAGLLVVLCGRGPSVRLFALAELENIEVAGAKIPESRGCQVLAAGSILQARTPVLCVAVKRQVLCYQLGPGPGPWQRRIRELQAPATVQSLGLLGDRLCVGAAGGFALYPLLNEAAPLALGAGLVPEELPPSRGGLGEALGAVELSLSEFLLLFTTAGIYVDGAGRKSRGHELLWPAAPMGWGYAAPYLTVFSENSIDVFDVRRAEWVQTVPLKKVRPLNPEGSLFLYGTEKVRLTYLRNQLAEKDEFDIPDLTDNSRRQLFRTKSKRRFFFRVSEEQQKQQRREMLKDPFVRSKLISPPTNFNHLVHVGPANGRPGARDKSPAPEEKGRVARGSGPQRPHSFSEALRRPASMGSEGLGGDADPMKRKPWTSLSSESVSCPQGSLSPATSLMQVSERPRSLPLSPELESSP
smiles,measurement,setting,value
CCN(CC)CCCCNc1ncc2cc(-c3cc(OC)cc(OC)c3)c(NC(=O)NC(C)(C)C)nc2n1,% of control,[1],100%
same,% of control,[2],100%
COCC(=O)NC/C=C/c1ccc2ncnc(Nc3ccc(Oc4ccc(C)nc4)c(C)c3)c2c1 [CP-724714],% of control,[3],100%
same,% of control,[4],100%
CNC(=O)Nc1ccc(-c2nc(N3CC4CCC(C3)O4)c3cnn(C4CCC5(CC4)OCCO5)c3n2)cc1,% of control,[5],100%
